How the values were obtained:
[1] = tested on: wild-type soybean line A3237; assay: Experiment II second greenhouse test, seed imbibition, wild-type soybean; format: in vivo, Glycine max; conditions: 0.25 mg/ml; seeds imbibed 6 hours
Protocol: (§1) (The compounds are tested in Experiment I at only one concentration, i.e., 0.25 mg/ml). Test tubes contained […] of ethanol solution per tube. Final volumes are made up to 30 ml with deionized water. After shaking, the treatment solutions (15 ml each) are transferred to each of two 50 ml test tubes. […] Twenty seeds are used in each treatment. Dry seed, ethanol/water-imbibed seed (1% ethanol in water, v/v), and water-imbibed seeds are included as controls. Seeds are imbibed for 6 hours in the test solutions, then planted in bread pans containing Metromix 350 (The Scotts Company, Marysville, Ohio), and covered with 0.5″ Metro-mix. Covered pans are transferred to the greenhouse and subirrigated. Illumination is at a light intensity of 300-400 μmolm^−2s^−1 photosynthetic photon flux; 16 hours light/8 hours dark. Subsequent waterings are also through sub-irrigation until the test is terminated three weeks later. Observations included the number of dwarf, intermediate, and tall plants; plant height; uniformity of rescue; and any visual effects. Digital photographs are also taken.

[2] = tested on: transgenic line 719 soybean; assay: Field trial of seed coatings under soil compaction / different soils, GA-deficient soybean; format: in vivo, Glycine max; conditions: for Count (emergence) / Dwarfs (number of dwarfs not rescued) / Dwarfs (number not rescued): Line 719
[3] = tested on: GA-deficient transgenic soybean line 719 (R5); assay: Hilum treatment of soybean seeds, seedling growth and development, GA-deficient soybean; format: in vivo, Glycine max; set-up: key to Emergence timing / Hypocotyl length (6 DAP) / 1st internode length (12 DAP) / 3rd internode length (20 DAP) / 2nd internode length (12 DAP): pos: emergence faster/stem segment longer than controls; 0: emergence timing/stem segment length similar to controls; neg: emergence slower/stem segment shorter than controls; conditions: for 1st internode length (12 DAP) / Emergence timing / Hypocotyl length (6 DAP): L719, hilum treatment, single rate per compound 8.3-16.5 μg/seed
Protocol: (§2) In the previous experiments, the effect of various GA compounds on transgenic, GA-deficient and wild-type soybean is evaluated by treating seeds with these compounds via imbibition. Several of these compounds are not completely soluble in water, which limited the interpretation of their utility in rescuing GA-deficient dwarf plants. The purpose of this experiment is to reevaluate selected, previously tested compounds, and additional compounds, by introducing them to the seed via the hilum. As shown by the results presented below, direct application of small quantities of GA compounds dissolved in an organic solvent to the hilum is an effective method of treating soybean seeds. As in the previously described experiments, comparison is made between activity on GA-deficient soybean seedlings and normal (wild-type) seedlings. […] soybean seeds are supplied by Asgrow Seed Company (Des Moines, Iowa). Seed of GA-deficient transgenic soybean line 719 is created by transformation of […] soybean with pMON29801 (FMV/antisense CPScc). Fifth generation seed (R5) is used for these experiments. […] When multiple droplets are applied, each 1 μl droplet is allowed to dry before subsequent droplets are added. Ethanol minus compound is used a treatment control. […] (29° C.) and 75° F. (24° C.), respectively. Emergence timing is measured by counting the number of emerged seedlings at different times after planting. Emergence is defined as the presence of cotyledons raised to soil level or above. […] To assess the ability of a seed treatment to deliver biological activity beyond the first internode, measurements are taken on selected treatments after prolonged growth and development.

[4] = tested on: wild-type A3237 soybean; assay: Hilum treatment of soybean seeds, seedling growth and development, wild-type soybean; format: in vivo, Glycine max; set-up: key to Emergence timing / Hypocotyl length (6 DAP) / 1st internode length (12 DAP) / 3rd internode length (20 DAP): pos: emergence faster/stem segment longer than controls; 0: emergence timing/stem segment length similar to controls; neg: emergence slower/stem segment shorter than controls; conditions: single rate per compound 8.3-16.5 μg/seed
Protocol: as §2

[5] = tested on: wild-type soybean line A3237; assay: Experiment I greenhouse test, seed imbibition, wild-type soybean; conditions: 0.25 mg/ml; seeds imbibed 5 hours
Protocol: Compounds are first prepared as 25 mg/ml solutions in ethanol as described above, and then diluted into 40 ml of water to prepare the final 0.25 mg/ml treatment solutions. Visual observations on solubilities (milky, clear, etc.) of the treatment solutions are noted. The treatment solutions are divided into two 20 ml portions, each in 50 ml plastic centrifuge tubes. In addition to treating seeds with solutions containing the test compounds, untreated seeds and seeds imbibed in ethanol-water solution (300 μl ethanol in 30 mls of water) are also included in this experiment as controls. […]
After imbibition, seeds are removed from the test tubes, placed on wax paper to dry, and planted in bread pans containing farm soil amended with fertilizer at 20 seeds/pan. Seeds are covered with 0.5″ of vermiculite. Pans are transferred to the greenhouse, which had day/night temperatures of 86/68° F. (30/20° C.), and subirrigated. Illumination is at a light intensity of 300-400 μmolm^−2s^−1 photosynthetic photon flux; 16 hours light/8 hours dark. Subsequent waterings are also through sub-irrigation until the test is terminated three weeks later. Observations included the number of dwarf, intermediate, and tall plants; plant height; uniformity of rescue; and any visual effects.

[6] = tested on: constitutively GA-deficient transgenic dwarf soybean line 719; assay: Experiment II second greenhouse test, seed imbibition, GA-deficient soybean; format: in vivo, Glycine max; conditions: seeds imbibed 6 hours
Protocol: as §1

[7] = Heavy soil - Loose, target rate 1.0 μg/seed, Table 23
[8] = Heavy soil - Loose, target rate 10.0 μg/seed, Table 23
[9] = Heavy soil - Loose, target rate 40.0 μg/seed, Table 23
[10] = Heavy soil - compacted, target rate 1.0 μg/seed, Table 23
[11] = Heavy soil - compacted, target rate 10.0 μg/seed, Table 23
[12] = Heavy soil - compacted, target rate 40.0 μg/seed, Table 23
[13] = Heavy soil - loose, target rate 40.0 μg/seed, Table 22
[14] = Light soil - Compacted, target rate 40.0 μg/seed, Table 22
[15] = Light soil - Loose, target rate 1.0 μg/seed, Table 24
[16] = Light soil - Loose, target rate 10.0 μg/seed, Table 24
[17] = Light soil - Loose, target rate 40.0 μg/seed, Table 24
[18] = Light soil - compacted, target rate 1.0 μg/seed, Table 24
[19] = Light soil - compacted, target rate 10.0 μg/seed, Table 24
[20] = Light soil - compacted, target rate 40.0 μg/seed, Table 24

C=C1C[C@]23C[C@H]1CC[C@H]2[C@]1(C)CCC[C@@](C)(C(=O)O)[C@H]1[C@@H]3C(=O)O [GA12]
Significant Visual Observations on Line A3237 [1]: Short plants
Count (emergence) [2, 7]: 36.0 ab
Dwarfs (number of dwarfs not rescued) [2, 7]: 10.0 a
Count (emergence) [2, 8]: 35.3 abc
Dwarfs (number of dwarfs not rescued) [2, 8]: 7.0 b
Count (emergence) [2, 9]: 35.3 abc
Dwarfs (number of dwarfs not rescued) [2, 9]: 3.3 c
Count (emergence) [2, 10]: 18.7 ab
Dwarfs (number of dwarfs not rescued) [2, 10]: 4.0 a
Count (emergence) [2, 11]: 13.0 b-e
Dwarfs (number of dwarfs not rescued) [2, 11]: 2.0 b
Count (emergence) [2, 12]: 22.7 a
Dwarfs (number of dwarfs not rescued) [2, 12]: 1.3 bc
Count (emergence) [2, 13]: 35 abc
Dwarfs (number of dwarfs not rescued) [2, 13]: 3.3 c
Count (emergence) [2, 14]: 42 a
Dwarfs (number of dwarfs not rescued) [2, 14]: 3.7 bc
Count (emergence) [2, 15]: 46.3 a
Dwarfs (number not rescued) [2, 15]: 17.3 b
Count (emergence) [2, 16]: 48.3 a
Dwarfs (number not rescued) [2, 16]: 11.3 c
Count (emergence) [2, 17]: 46.0 a
Dwarfs (number not rescued) [2, 17]: 7.7
Count (emergence) [2, 18]: 40.3 a
Dwarfs (number not rescued) [2, 18]: 8.3 a
Count (emergence) [2, 19]: 40.0 ab
Dwarfs (number not rescued) [2, 19]: 4.3 b
Count (emergence) [2, 20]: 42.0 a
Dwarfs (number not rescued) [2, 20]: 3.7 bc
rank of potential for rescuing GA-deficient dwarf soybeans without decreasing emergence ([2]; based on the last two field trials): GA9>GA5>GA3-3-acetate>GA3>GA12
1st internode length (12 DAP) [3]: 0
Emergence timing [3]: 0
Hypocotyl length (6 DAP) [3]: neg
effect on emergence timing and hypocotyl length ([3]; single rate, hilum): inhibited emergence timing and hypocotyl length
1st internode length (12 DAP) [4]: 0
Emergence timing [4]: neg
Hypocotyl length (6 DAP) [4]: neg
Observation on Wild-Type Line A3237 [5]: −1
Significant Visual Observations on Line 719 ([6]; 0.0025 mg/ml): Poor rescue
Significant Visual Observations on Line 719 ([6]; 0.025 mg/ml): Incomplete rescue
Significant Visual Observations on Line 719 ([6]; 0.25 mg/ml): good rescue, with no overelongation

C=C1C[C@@]23CC[C@H]4[C@@](C)(CCC[C@@]4(C)C(=O)O)[C@@H]2CC[C@@H]1C3 [kaurenoic acid]
1st internode length (12 DAP) [3]: 0
Emergence timing [3]: pos
Hypocotyl length (6 DAP) [3]: 0
1st internode length (12 DAP) [4]: 0
Emergence timing [4]: 0
Hypocotyl length (6 DAP) [4]: 0
Observation on Wild-Type Line A3237 [5]: 0
Significant Visual Observations on Line 719 ([6]; 0.0025 mg/ml): Poor rescue
Significant Visual Observations on Line 719 ([6]; 0.025 mg/ml): Poor rescue
Significant Visual Observations on Line 719 ([6]; 0.25 mg/ml): Poor rescue

Source: US6723897B2, “Methods for controlling gibberellin levels” (Monsanto Technology, LLC, priority 1998, dated 2004)
